Assay results: the supplement of paper PMC10307832

Legend:
Bicalutamide = compound: CC(O)(CS(=O)(=O)c1ccc(F)cc1)C(=O)Nc1ccc(C#N)c(C(F)(F)F)c1 [Bicalutamide]; assay: relative viability (nuclei count vs DMSO), 5 days (fraction); higher = more cells survive
Summary of the method: (§1)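 Lung cancer cell lines in 1536-well plates were exposed by pinning to five library-drug doses (not always all listed) √10 apart, following an overnight hold at 37 °C. MetaXpress counted Hoechst-stained nuclei from 4× images taken after 5 days without medium change. Viability is the median ratio of treated-well to vehicle-well nuclei across plates. Plates required control CV below 25% and at least one doubling.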

Bromopyruvate = compound: C(C(=O)C(=O)O)Br [Bromopyruvate]; assay: as above
Summary of the method: as §1

Cell Line | relative viability (Bicalutamide; 0.08 µM) | relative viability (Bicalutamide; 0.253 µM) | relative viability (Bicalutamide; 0.8 µM) | relative viability (Bicalutamide; 2.53 µM) | relative viability (Bromopyruvate; 1 µM) | relative viability (Bromopyruvate; 3.162 µM) | relative viability (Bromopyruvate; 10 µM) | relative viability (Bromopyruvate; 31.62 µM) | relative viability (Bromopyruvate; 100 µM)
201T | 1.02 | 0.932 | 1.02 | 1.01 | 1.03 | 0.983 | 1.04 | 0.946 | 0.997
A549 | 0.974 | 0.875 | 1.16 | 0.973 | 0.942 | 0.969 | 1.18 | 0.95 | 1.06
A-427 | 0.996 | 1.02 | 1.17 | 0.869 | 1.05 | 1.09 | 1.16 | 0.967 | 1.1
ABC-1 | 0.998 | 0.857 | 0.951 | 0.943 | 1.14 | 0.935 | 0.807 | 0.995 | 0.945
BEN | 1.01 | 0.876 | 1.34 | 1.03 | 1.07 | 0.949 | 0.971 | 0.951 | 0.934
CAL-12T | 1.03 | 0.855 | 1.11 | 0.842 | 0.972 | 0.982 | 0.919 | 0.982 | 0.956
COR-L23 | 1.03 | 1.01 | 1.18 | 0.877 | 1.02 | 0.913 | 1.19 | 1.03 | 0.723
COR-L 105 | 1.05 | 0.814 | 1.03 | 0.825 | 0.87 | 1.06 | 0.866 | 0.838 | 0.687
Calu-6 | 1.09 | 0.989 | 1.07 | 0.987 | 0.934 | 0.995 | 1.12 | 0.994 | 0.809
ChaGo-K-1 | 0.998 | 0.962 | 1.18 | 0.976 | 0.979 | 0.995 | 1.07 | 1 | 1.02
EBC-1 | 0.977 | 1.02 | 1.1 | 0.976 | 0.912 | 0.94 | 1.14 | 0.935 | 0.987
EKVX | 1.02 | 0.984 | 1.09 | 0.914 | 0.988 | 0.973 | 1.06 | 1.01 | 0.969
EMC-BAC-2 | 1.03 | 0.894 | 1.05 | 0.822 | 0.982 | 0.933 | 0.986 | 0.804 | 1.01
EPLC-272H | 0.996 | 0.798 | 1.06 | 0.908 | 1.01 | 1.03 | 1.11 | 0.952 | 1.04
H3255 | 0.969 | 0.896 | 1.02 | 0.907 | 0.953 | 0.999 | 1.02 | 1.01 | 1.12
HARA | 1.02 | 0.802 | 1.01 | 0.953 | 1.01 | 1.1 | 0.997 | 0.983 | 1.05
HCC-15 | 1.02 | 0.973 | 1.15 | 1 | 1.03 | 1.06 | 1.08 | 0.981 | 0.957
HCC-44 | 1.03 | 0.998 | 0.981 | 1.01 | 1.02 | 0.986 | 0.992 | 1.01 | 0.985
HCC-78 | 0.941 | 0.991 | 1.22 | 0.985 | 1.08 | 0.971 | 1.02 | 0.94 | 0.993

Cell Line | relative viability (Bicalutamide; 0.08 µM) | relative viability (Bicalutamide; 0.253 µM) | relative viability (Bicalutamide; 0.8 µM) | relative viability (Bicalutamide; 2.53 µM) | relative viability (Bromopyruvate; 1 µM) | relative viability (Bromopyruvate; 3.162 µM) | relative viability (Bromopyruvate; 10 µM) | relative viability (Bromopyruvate; 31.62 µM) | relative viability (Bromopyruvate; 100 µM)
HCC-366 | 1.01 | 0.95 | 1.06 | 1.01 | 0.996 | 0.979 | 1.05 | 1.02 | 0.998
HCC-827 | 1.08 | 0.842 | 1.07 | 1.03 | 1.04 | 1.02 | 0.988 | 1.06 | 1.07
HOP-62 | 1.12 | 0.988 | 1.06 | 1.03 | 1.06 | 0.981 | 0.936 | 1.03 | 1.03
IA-LM | 1.02 | 0.936 | 1.18 | 0.95 | 1.03 | 0.96 | 0.983 | 0.884 | 0.924
LC-2-ad | 1.09 | 0.935 | 1.08 | 0.986 | 1.01 | 0.985 | 1.03 | 0.924 | 0.964
LCLC-97TM1 | 1.04 | 0.974 | 1.29 | 0.862 | 1.02 | 1.06 | 1 | 0.974 | 0.859
LCLC-103H | 0.986 | 0.971 | 1.08 | 0.918 | 0.953 | 0.992 | 1.11 | 0.994 | 0.976
LK-2 | 0.961 | 0.825 | 1.31 | 1.02 | 0.98 | 1.02 | 1.11 | 0.936 | 0.832
LOU-NH91 | 1.09 | 0.765 | 1.05 | 1.04 | 1.09 | 1.01 | 0.973 | 0.984 | 1.01
LU99A | 0.926 | 0.885 | 1.22 | 0.755 | 0.852 | 0.913 | 0.977 | 0.967 | 1.03
LXF-289 | 0.998 | 0.958 | 0.984 | 0.979 | 1.03 | 1.01 | 1.04 | 1.03 | 1.02
NCI-H23 | 1.02 | 0.9 | 1.08 | 0.812 | 1.01 | 1.19 | 0.979 | 0.909 | 0.931
NCI-H322M | 0.969 | 0.941 | 1.05 | 1.06 | 0.93 | 0.956 | 0.865 | 0.94 | 1.04
NCI-H358 | 0.988 | 0.865 | 1.13 | 1.06 | 1.03 | 1.02 | 0.939 | 0.909 | 0.929
NCI-H441 | 1.13 | 0.803 | 1.45 | 0.976 | 0.949 | 1.18 | 1.17 | 0.914 | 0.679
NCI-H460 | 0.974 | 0.952 | 1.07 | 0.988 | 0.99 | 0.972 | 1.13 | 1 | 1.01
NCI-H520 | 0.948 | 0.952 | 1.17 | 0.906 | 0.926 | 1.17 | 0.989 | 1.07 | 0.855
NCI-H522 | 1.07 | 0.828 | 0.999 | 0.991 | 1.06 | 0.975 | 0.941 | 0.939 | 0.785
